Converted amounts (≈) assume the structure as drawn.
Legend:
Mycobacterium avium = type: functional; settings: 240 h
Mycolicibacter terrae = type: functional; settings: 240 h
[1] = Toxicity in healthy mouse administered as single peroral dose measured after 14 days; type: organism-based; settings: in vivo, po
[2] = system: Mycobacterium tuberculosis; assay: microbe, parasite or virus in culture; settings: H37Rv, 240 h
Description: Tuberculostatic activity against Mycobacterium tuberculosis H37Rv assessed as induction of penetration size stunting incubated for 10 days by vertical diffusion method

[3] = system: Mycobacterium tuberculosis; assay: Antimicrobial activity against Mycobacterium tuberculosis; type: functional

Compound	MIC (Mycobacterium avium)	MIC (Mycolicibacter terrae)	LD50 at 336 h [1]	MIC [2]	MIC [3]
O=C(O)c1cc(F)c(F)cc1O	0.7 µg/mL (≈ 4.02 µM)	0.7 µg/mL (≈ 4.02 µM)	> 300 mg/kg	0.7 µg/mL (≈ 4.02 µM)	
O=C(O)c1c(O)c(F)c(F)c(F)c1F	0.7 µg/mL (≈ 3.33 µM)	0.7 µg/mL (≈ 3.33 µM)	100 mg/kg	0.7 µg/mL (≈ 3.33 µM)	
O=C(O)c1ccc(F)c(F)c1O	1.5 µg/mL (≈ 8.62 µM)	1.5 µg/mL (≈ 8.62 µM)	> 150 mg/kg	1.5 µg/mL (≈ 8.62 µM)	
O=C(O)c1cc(F)c(F)c(F)c1O			> 100 mg/kg	6.5 µg/mL (≈ 33.8 µM)	
Nc1ccc(C(=O)O)c(O)c1 [AMINOSALICYLIC ACID]	32 µg/mL (≈ 209 µM)		4000 mg/kg	0.3 µg/mL (≈ 1.96 µM)	> 250 µg/mL
NNC(=O)c1ccncc1 [ISONIAZID]	0.1 µg/mL (≈ 0.729 µM)	0.1 µg/mL (≈ 0.729 µM)	100 mg/kg	0.1 µg/mL (≈ 0.729 µM)	
CC1COc2c(N3CCN(C)CC3)c(F)cc3c(=O)c(C(=O)O)cn1c23 (stereo not given) [OFLOXACIN]	0.1 µg/mL (≈ 0.277 µM)	0.1 µg/mL (≈ 0.277 µM)		0.1 µg/mL (≈ 0.277 µM)	

Reference: ChEMBL document CHEMBL3792286, “A convenient and efficient approach to polyfluorosalicylic acids and their tuberculostatic activity” (Bioorg Med Chem Lett, 2016)
